Key:
[1] = 101 kPa, Liquid; for viscosity: Capillary tube (Ostwald / Ubbelohde) method; for mass density: Pycnometric method
[2] = xn = mol fraction of the nth substance listed; settings: 101 kPa, Liquid; for viscosity: Capillary tube (Ostwald / Ubbelohde) method; for mass density: Pycnometric method

COCC(C)O (configuration not stated) [1-methoxy-2-propanol]
[1]
Settings	mass density [kg/m3]	viscosity [mPa·s]
298.15 K	915.9	1.707
308.15 K	907.1	1.306
318.15 K	896.9	1.069

COCC(C)O (configuration not stated) [1-methoxy-2-propanol] + C=C(C)C(=O)O
[2], x1 = 1
Settings	mass density [kg/m3]	viscosity [mPa·s]
298.15 K	915.9	1.707
308.15 K	907.1	1.306
318.15 K	896.9	1.069

COCC(C)O (configuration not stated) [1-methoxy-2-propanol] + C=C(C)C(=O)OCCO
[2], x1 = 1
Settings	mass density [kg/m3]	viscosity [mPa·s]
298.15 K	915.9	1.707
308.15 K	907.1	1.306
318.15 K	896.9	1.069

COCC(C)O (configuration not stated) [1-methoxy-2-propanol] + C=C(C)C(=O)OCc1ccccc1
[2], x1 = 1
Settings	mass density [kg/m3]	viscosity [mPa·s]
298.15 K	915.9	1.707
308.15 K	907.1	1.306
318.15 K	896.9	1.069

C=C(C)C(=O)OCCO [2-hydroxyethyl 2-methyl-2-propenoate]
[1]
Settings	mass density [kg/m3]	viscosity [mPa·s]
298.15 K	1067.1	5.784
308.15 K	1057.7	4.194
318.15 K	1048.6	3.181

C=C(C)C(=O)OCCO [2-hydroxyethyl 2-methyl-2-propenoate] + COCC(C)O
[2]
Settings	mass density, 298.15 K [kg/m3]	mass density, 308.15 K [kg/m3]	mass density, 318.15 K [kg/m3]	viscosity, 298.15 K [mPa·s]	viscosity, 308.15 K [mPa·s]	viscosity, 318.15 K [mPa·s]
x2 = 0	1067.1	1057.7	1048.6	5.784	4.194	3.181
x2 = 0.1	1055.2	1046.2	1037.8	5.12	3.747	2.869
x2 = 0.2	1042.8	1034.1	1025.5	4.607	3.408	2.623
x2 = 0.3	1029.9	1021.2	1012.6	4.13	3.065	2.373
x2 = 0.4	1016.3	1007.5	998.9	3.656	2.757	2.148
x2 = 0.5	1001.7	993	984.4	3.256	2.477	1.947
x2 = 0.6	986.2	977.6	969	2.869	2.208	1.753
x2 = 0.7	969.8	961.5	952.8	2.496	1.944	1.559
x2 = 0.8	952.7	944.5	935.5	2.208	1.73	1.395
x2 = 0.9	934.8	926.6	917.3	1.933	1.528	1.237

C=C(C)C(=O)O [2-methyl-2-propenoic acid]
[1]
Settings	mass density [kg/m3]	viscosity [mPa·s]
298.15 K	1009.5	1.267
308.15 K	999.4	1.078
318.15 K	989.2	0.945

C=C(C)C(=O)O [2-methyl-2-propenoic acid] + COCC(C)O
[2]
Settings	mass density, 298.15 K [kg/m3]	mass density, 308.15 K [kg/m3]	mass density, 318.15 K [kg/m3]	viscosity, 298.15 K [mPa·s]	viscosity, 308.15 K [mPa·s]	viscosity, 318.15 K [mPa·s]
x2 = 0	1009.5	999.4	989.2	1.267	1.078	0.945
x2 = 0.1	1000.9	991.8	982.4	1.376	1.163	1.002
x2 = 0.2	992	983.2	974.2	1.659	1.372	1.157
x2 = 0.3	983.5	974.9	966.1	1.982	1.577	1.312
x2 = 0.4	975.3	966.5	957.5	2.124	1.702	1.394
x2 = 0.5	966.6	957.8	948.9	2.233	1.762	1.429
x2 = 0.6	957.5	948.7	940.2	2.255	1.77	1.432
x2 = 0.7	947.3	938.6	930.3	2.14	1.685	1.361
x2 = 0.8	936.9	928.3	919.9	1.969	1.554	1.258
x2 = 0.9	926.2	917.8	909.1	1.809	1.431	1.165

C=C(C)C(=O)OCc1ccccc1 [benzyl methacrylate]
[1]
Settings	mass density [kg/m3]	viscosity [mPa·s]
298.15 K	1034.7	2.302
308.15 K	1025.8	1.885
318.15 K	1017	1.58

C=C(C)C(=O)OCc1ccccc1 [benzyl methacrylate] + COCC(C)O
[2]
Settings	mass density, 298.15 K [kg/m3]	mass density, 308.15 K [kg/m3]	mass density, 318.15 K [kg/m3]	viscosity, 298.15 K [mPa·s]	viscosity, 308.15 K [mPa·s]	viscosity, 318.15 K [mPa·s]
x2 = 0	1034.7	1025.8	1017	2.302	1.885	1.58
x2 = 0.1	1026.8	1018.1	1009.5	2.194	1.806	1.52
x2 = 0.2	1018.6	1010.1	1001.4	2.09	1.716	1.441
x2 = 0.3	1009.8	1001.4	992.5	1.99	1.628	1.364
x2 = 0.4	1000.2	991.8	982.8	1.895	1.538	1.291
x2 = 0.5	989.7	981.3	972.2	1.8	1.465	1.228
x2 = 0.6	978.1	969.7	960.5	1.731	1.406	1.166
x2 = 0.7	965.2	956.8	947.5	1.677	1.354	1.115
x2 = 0.8	950.9	942.3	932.7	1.633	1.312	1.084
x2 = 0.9	934.6	925.9	916	1.64	1.308	1.077

From the NIST ThermoML archive (doi:10.1021/je060288t)
